Measurements as given in PubChem BioAssay (NCI).
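Cells were grown in 96-well plates and exposed to each compound for 48 hours at five concentrations; endpoints were interpolated linearly between bracketing concentrations, or set to the highest concentration if not reached. Abbreviation: GI50, concentration required for 50% inhibition of growth. TGI denotes the concentration required for complete inhibition of growth.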 Where a SMILES comes first, the peptide text is derived from it. [ ]: non-standard residue; d: D form. The star is where a group is joined. ξ: configuration not given here. ξF = NC(Cc1ccccc1)C(=O)O; Cbz = O=C(OCc1ccccc1)*; Aib = CC(C)(N)C(=O)O

Key:
Assay in all cases: inhibition of tumour cell growth, NCI panel, 48 h
A498 renal = system: A498 renal
HOP-62 NSCLC = system: HOP-62 NSCLC
NCI-H460 lung = system: NCI-H460 lung
NCI-H522 lung = system: NCI-H522 lung
OVCAR-3 ovarian = system: OVCAR-3 ovarian
OVCAR-4 ovarian = system: OVCAR-4 ovarian
OVCAR-8 ovarian = system: OVCAR-8 ovarian
UACC-62 melanoma = system: UACC-62 melanoma
RPMI-8226 leukemia = system: RPMI-8226 leukemia
SK-OV-3 ovarian = system: SK-OV-3 ovarian

SMILES | TGI (A498 renal) | TGI (HOP-62 NSCLC) | TGI (NCI-H460 lung) | TGI (NCI-H522 lung) | TGI (OVCAR-3 ovarian) | TGI (OVCAR-4 ovarian) | TGI (OVCAR-8 ovarian) | TGI (UACC-62 melanoma) | GI50 (A498 renal) | GI50 (HOP-62 NSCLC) | GI50 (NCI-H460 lung) | GI50 (NCI-H522 lung) | GI50 (OVCAR-3 ovarian) | GI50 (OVCAR-4 ovarian) | GI50 (OVCAR-8 ovarian) | GI50 (RPMI-8226 leukemia) | TGI (RPMI-8226 leukemia) | GI50 (SK-OV-3 ovarian) | TGI (SK-OV-3 ovarian) | GI50 (UACC-62 melanoma)
NCCSCc1ccccc1Cl | 96.2 µM | > 100 µM | > 100 µM | > 100 µM | 82.9 µM | > 100 µM | > 100 µM | > 100 µM |  |  |  |  |  |  |  |  |  |  |  | 
COc1cc(-c2n/c(=C\c3c(O)[nH]c4cc(Cl)ccc34)cc3c2=Nc2ccccc2-3)cc(OC)c1OC | 27.9 µM | 5.73 µM | 81.7 µM | 18.4 µM | 6.69 µM | 6.36 µM | 29.2 µM | 14.1 µM | 7.12 µM | 2.64 µM | 4.56 µM | 3.85 µM | 2.13 µM | 2.59 µM | 4.6 µM | 67.1 µM | > 100 µM | 3.8 µM | 11.3 µM | 3.4 µM
CCOc1ccc(N=NS(=O)(=O)O)cc1 | > 100 µM | > 100 µM | > 100 µM | > 100 µM | > 100 µM | > 100 µM | > 100 µM | > 100 µM |  |  |  |  |  |  |  |  | > 100 µM |  | > 100 µM | 
N=C(N)c1ccc(-c2ccc(-c3cccs3)s2)s1 | 0.846 µM |  | 0.229 µM | 3.02 µM |  | 4.16 µM |  | 3.28 µM | 0.279 µM |  |  | 1.49 µM |  | 1.33 µM |  |  |  |  |  | 1.82 µM
Nc1c(-c2ccccc2[N+](=O)[O-])nc2ccccn12 |  | > 100 µM | > 100 µM |  | > 100 µM |  | > 100 µM | > 100 µM |  |  |  |  |  |  |  |  | > 100 µM |  | > 100 µM | 
CC(=O)ON1C(=O)c2cccc3cccc(c23)C1=O | 71.5 µM | 85.4 µM | 41.7 µM | 43.6 µM | 68.9 µM | 40.7 µM | > 100 µM | 52.5 µM |  |  |  |  |  |  |  |  | 53.4 µM |  | > 100 µM | 
Cc1ccc(N2CCN(CCC(=O)O)CC2)cc1 | > 100 µM | > 100 µM | > 100 µM | > 100 µM | > 100 µM | > 100 µM | > 100 µM | > 100 µM |  |  |  |  |  |  |  |  | > 100 µM |  | > 100 µM | 
COC(=O)C(C)(C)NC(=O)C(Cc1ccccc1)NC(=O)C(C)(C)NC(=O)OCc1ccccc1 (centres undefined) (Cbz-[Aib]-[ξF]-[Aib]-OMe) | > 100 µM | > 100 µM | > 100 µM | > 100 µM | > 100 µM | > 100 µM | > 100 µM | > 100 µM |  |  |  |  |  |  |  |  | > 100 µM |  | > 100 µM | 
Nc1nc2ccc(OCC(O)CN3CCCCC3)cc2[n+]([O-])n1 (centres undefined) | > 100 µM |  | > 100 µM | > 100 µM | > 100 µM | > 100 µM | > 100 µM |  |  |  |  |  |  |  |  |  | > 100 µM |  |  | 
Cc1ccc(C(O)(c2ccc(C)cc2)c2ccccn2)cc1 | > 100 µM | > 100 µM | > 100 µM |  | > 100 µM | > 100 µM | > 100 µM | > 100 µM |  |  |  |  |  |  |  |  | > 100 µM |  | > 100 µM | 
CCCCOCc1cc(CN2CCN(C)CC2)c(O)c2ncccc12 | 78.9 µM | 41.8 µM | > 100 µM | > 100 µM | > 100 µM | > 100 µM | > 100 µM | 40.6 µM |  |  |  |  |  |  |  |  | 26.3 µM |  | > 100 µM | 
COc1cc(Nc2nnc3n2S(=O)(=O)c2cc(C)c(Cl)cc2S3)cc(OC)c1 | 85.8 µM | 26.7 µM | > 100 µM | 8.44 µM | 28.2 µM | 24.4 µM | 81.1 µM | 57.6 µM |  |  |  |  |  |  |  |  | 95.7 µM |  | 31.4 µM | 
C(=N\OCCc1ccccc1)/c1cccnc1 |  | > 100 µM | > 100 µM | > 100 µM | > 100 µM | > 100 µM | > 100 µM | > 100 µM |  |  |  |  |  |  |  |  | > 100 µM |  | > 100 µM | 
c1cncc(O[Si](Oc2cccnc2)(Oc2cccnc2)Oc2cccnc2)c1 |  |  | > 100 µM |  | > 100 µM | > 100 µM | > 100 µM | > 100 µM |  |  |  |  |  |  |  |  |  |  | > 100 µM | 
CC(C)(CCCCC(C)(C)C1NC(=O)N1)C1NC(=O)N1 | > 10 µM | > 10 µM | > 10 µM | > 10 µM |  | > 10 µM | > 10 µM | > 10 µM |  |  |  |  |  |  |  |  | > 10 µM |  | > 10 µM | 
